In patent US8129417B2, “Substituted octahydrocyclopenta[C]pyrrol-4-amines as calcium channel blockers” (Abbott Laboratories, priority 2008, dated 2012):

molecular target: human Cav2.2 (Homo sapiens, UniProt Q00975); experiment: Assessment of calcium channel activity using FLIPR (Ca2+ influx in IMR32 cells); assay type: cell-based; conditions: 3 minute pre-incubation with compound (*), 2 μM nifedipine, depolarized with 80 mM KCl
Description: (i) In Vitro Methods—Assessment of Calcium Channel Activity Using FLIPR:
The IMR32 cells were maintained in MEM media containing 10% (v/v) FBS, 1% (v/v) antibiotic/antimitotic, 1% (v/v) sodium pyruvate and 1% (v/v) MEM NEAA. Following dissociation in 0.05% (v/v) trypsin/EDTA, cells were seeded into black 1×96-well plates (Corning Cellbind) at a density of 1-1.2×10^5 cells/well and incubated in the maintenance media above for 48 hours at 37° C. […] To determine the IC50 values, the percent inhibition of the compound at each concentration was determined relative to the activity in the absence of inhibitor, and data was fitted using non-linear regression sigmoidal dose response curve analysis with GraphPad Prism®.

human Cav2.2, sequence (Q00975 whole entry): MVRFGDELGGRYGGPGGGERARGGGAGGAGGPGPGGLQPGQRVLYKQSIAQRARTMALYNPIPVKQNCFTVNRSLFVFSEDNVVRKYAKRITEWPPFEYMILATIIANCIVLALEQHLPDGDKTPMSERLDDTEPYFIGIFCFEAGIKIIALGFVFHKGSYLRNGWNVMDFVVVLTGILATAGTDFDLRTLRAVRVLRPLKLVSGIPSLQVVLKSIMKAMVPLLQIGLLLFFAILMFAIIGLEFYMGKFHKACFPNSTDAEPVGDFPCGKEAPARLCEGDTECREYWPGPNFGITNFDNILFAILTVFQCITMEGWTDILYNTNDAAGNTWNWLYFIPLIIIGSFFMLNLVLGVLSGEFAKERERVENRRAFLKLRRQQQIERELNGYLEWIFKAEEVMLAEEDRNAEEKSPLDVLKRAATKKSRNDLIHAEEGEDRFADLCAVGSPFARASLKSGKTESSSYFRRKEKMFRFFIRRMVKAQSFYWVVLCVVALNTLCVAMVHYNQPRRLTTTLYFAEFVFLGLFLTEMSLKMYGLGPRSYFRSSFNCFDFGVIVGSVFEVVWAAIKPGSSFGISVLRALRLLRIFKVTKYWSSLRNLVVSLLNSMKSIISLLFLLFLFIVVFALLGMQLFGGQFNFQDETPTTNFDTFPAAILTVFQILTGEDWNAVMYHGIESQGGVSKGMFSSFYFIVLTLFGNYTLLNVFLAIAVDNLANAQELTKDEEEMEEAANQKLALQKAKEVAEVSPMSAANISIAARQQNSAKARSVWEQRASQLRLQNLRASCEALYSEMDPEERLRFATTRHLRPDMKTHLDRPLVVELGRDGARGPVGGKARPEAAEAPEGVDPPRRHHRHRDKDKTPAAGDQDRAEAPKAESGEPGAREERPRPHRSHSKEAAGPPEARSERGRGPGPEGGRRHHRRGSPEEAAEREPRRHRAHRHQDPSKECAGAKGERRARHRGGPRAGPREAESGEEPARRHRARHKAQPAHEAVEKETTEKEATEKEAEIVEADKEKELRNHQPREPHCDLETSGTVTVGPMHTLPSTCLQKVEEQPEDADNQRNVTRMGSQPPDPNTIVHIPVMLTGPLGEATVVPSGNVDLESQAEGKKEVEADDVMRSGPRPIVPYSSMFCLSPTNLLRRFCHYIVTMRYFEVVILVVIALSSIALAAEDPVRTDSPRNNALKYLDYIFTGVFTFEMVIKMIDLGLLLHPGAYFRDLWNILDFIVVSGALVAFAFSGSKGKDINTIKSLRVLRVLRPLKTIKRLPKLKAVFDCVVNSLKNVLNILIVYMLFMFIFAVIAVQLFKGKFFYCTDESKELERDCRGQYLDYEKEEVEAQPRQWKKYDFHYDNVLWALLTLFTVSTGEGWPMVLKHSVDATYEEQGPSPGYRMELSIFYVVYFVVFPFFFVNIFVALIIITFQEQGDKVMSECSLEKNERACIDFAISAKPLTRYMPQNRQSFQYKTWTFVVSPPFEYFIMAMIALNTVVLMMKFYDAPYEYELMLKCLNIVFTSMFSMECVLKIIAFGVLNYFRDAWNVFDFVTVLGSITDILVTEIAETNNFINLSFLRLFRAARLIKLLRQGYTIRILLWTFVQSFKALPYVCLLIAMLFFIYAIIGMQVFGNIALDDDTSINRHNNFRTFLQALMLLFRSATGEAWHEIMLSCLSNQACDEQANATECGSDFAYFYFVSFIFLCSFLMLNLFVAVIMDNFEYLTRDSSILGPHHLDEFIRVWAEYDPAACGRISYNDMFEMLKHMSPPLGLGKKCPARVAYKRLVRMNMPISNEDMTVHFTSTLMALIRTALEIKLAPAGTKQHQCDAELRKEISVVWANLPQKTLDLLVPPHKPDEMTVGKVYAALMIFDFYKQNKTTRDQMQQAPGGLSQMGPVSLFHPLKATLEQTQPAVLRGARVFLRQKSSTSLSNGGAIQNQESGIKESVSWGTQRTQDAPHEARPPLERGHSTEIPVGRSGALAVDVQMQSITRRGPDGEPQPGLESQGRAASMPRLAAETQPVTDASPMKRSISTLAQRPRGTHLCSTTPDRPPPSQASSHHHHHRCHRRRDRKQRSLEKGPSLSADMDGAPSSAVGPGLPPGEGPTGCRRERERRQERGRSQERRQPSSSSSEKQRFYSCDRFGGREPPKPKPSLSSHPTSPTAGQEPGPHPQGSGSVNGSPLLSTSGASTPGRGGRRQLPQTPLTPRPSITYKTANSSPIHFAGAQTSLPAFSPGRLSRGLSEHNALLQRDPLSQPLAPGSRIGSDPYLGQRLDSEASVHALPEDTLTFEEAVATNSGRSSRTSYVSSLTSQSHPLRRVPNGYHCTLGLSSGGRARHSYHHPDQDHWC
human Cav2.2, sequence (P54289 25-946 partner limits assumed): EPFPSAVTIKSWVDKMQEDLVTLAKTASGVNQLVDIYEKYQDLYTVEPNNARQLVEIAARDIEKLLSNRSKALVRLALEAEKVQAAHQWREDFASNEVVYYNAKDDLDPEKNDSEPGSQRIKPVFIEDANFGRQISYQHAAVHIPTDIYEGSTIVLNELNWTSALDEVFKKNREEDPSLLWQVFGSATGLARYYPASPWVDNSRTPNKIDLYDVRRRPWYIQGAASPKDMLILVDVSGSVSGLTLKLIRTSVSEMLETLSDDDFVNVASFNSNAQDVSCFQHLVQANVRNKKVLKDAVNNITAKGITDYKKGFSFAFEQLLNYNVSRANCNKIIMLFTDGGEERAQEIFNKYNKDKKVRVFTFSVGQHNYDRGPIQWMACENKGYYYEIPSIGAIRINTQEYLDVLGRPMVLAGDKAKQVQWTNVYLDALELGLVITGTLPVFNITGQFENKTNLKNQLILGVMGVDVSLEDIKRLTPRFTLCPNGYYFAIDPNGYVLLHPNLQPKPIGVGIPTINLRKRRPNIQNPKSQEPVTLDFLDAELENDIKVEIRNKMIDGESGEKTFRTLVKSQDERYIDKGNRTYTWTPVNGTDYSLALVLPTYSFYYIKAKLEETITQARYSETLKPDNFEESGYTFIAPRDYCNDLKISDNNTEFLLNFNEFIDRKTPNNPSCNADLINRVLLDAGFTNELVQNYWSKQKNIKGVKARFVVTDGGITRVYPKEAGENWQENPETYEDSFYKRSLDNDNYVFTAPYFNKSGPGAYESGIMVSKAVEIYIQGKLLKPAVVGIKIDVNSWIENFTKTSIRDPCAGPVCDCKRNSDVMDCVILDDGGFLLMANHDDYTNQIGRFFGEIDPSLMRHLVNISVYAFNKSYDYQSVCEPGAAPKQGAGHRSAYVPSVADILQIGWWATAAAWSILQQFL
human Cav2.2, sequence (P54289 947-1103 partner limits assumed): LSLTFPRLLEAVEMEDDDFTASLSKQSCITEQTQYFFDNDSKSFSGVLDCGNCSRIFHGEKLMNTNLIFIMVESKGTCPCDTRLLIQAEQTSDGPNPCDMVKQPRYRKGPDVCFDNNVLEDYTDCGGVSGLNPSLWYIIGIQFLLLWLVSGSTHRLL
human Cav2.2, sequence (P54284 whole entry partner): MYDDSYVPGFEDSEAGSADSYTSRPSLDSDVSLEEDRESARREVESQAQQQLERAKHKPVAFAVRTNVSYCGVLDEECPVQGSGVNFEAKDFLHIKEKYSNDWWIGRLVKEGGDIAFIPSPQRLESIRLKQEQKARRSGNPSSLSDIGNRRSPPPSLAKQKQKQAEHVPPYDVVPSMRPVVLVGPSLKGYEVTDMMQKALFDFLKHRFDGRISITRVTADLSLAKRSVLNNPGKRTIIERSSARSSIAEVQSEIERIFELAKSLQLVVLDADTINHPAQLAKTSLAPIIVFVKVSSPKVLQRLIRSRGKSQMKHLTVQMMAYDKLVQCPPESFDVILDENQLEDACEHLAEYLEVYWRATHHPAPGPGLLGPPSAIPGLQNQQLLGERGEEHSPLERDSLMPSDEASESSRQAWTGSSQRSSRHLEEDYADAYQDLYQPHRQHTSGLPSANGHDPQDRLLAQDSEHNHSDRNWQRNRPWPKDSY

Compound	IC50
O=C(N[C@@H]1CC[C@H]2CNC[C@H]21)C(C1CCCCC1)C1CCCCC1 [Example 74, 2,2-dicyclohexyl-N-[(3aS,4R,6aR)-octahydrocyclopenta[c]pyrrol-4-yl]acetamide]	11200 nM
COc1ccc(CN2C[C@H]3CC[C@H](NC(=O)C(c4ccccc4)C(C)C)[C@H]3C2)cc1 (stereo partly drawn) [Example 96, N-[(3aR,4S,6aS)-2-(4-methoxybenzyl)octahydrocyclopenta[c]pyrrol-4-yl]-3-methyl-2-phenylbutanamide]	2400 nM
CC(C)C(C(=O)N[C@H]1CC[C@@H]2CN(Cc3cccc(C#N)c3)C[C@@H]21)c1ccccc1 (stereo partly drawn) [Example 97, N-[(3aR,4S,6aS)-2-(3-cyanobenzyl)octahydrocyclopenta[c]pyrrol-4-yl]-3-methyl-2-phenylbutanamide]	5300 nM
CC(C)C(C(=O)N[C@H]1CC[C@@H]2CN(Cc3ccc(C(F)(F)F)cc3)C[C@@H]21)c1ccccc1 (stereo partly drawn) [Example 98, 3-methyl-2-phenyl-N-{(3aR,4S,6aS)-2-[4-(trifluoromethyl)benzyl]octahydrocyclopenta[c]pyrrol-4-yl}butanamide]	4900 nM
CC(C)C(C(=O)N[C@H]1CC[C@@H]2CN(Cc3ccccc3C(F)(F)F)C[C@@H]21)c1ccccc1 (stereo partly drawn) [Example 99, 3-methyl-2-phenyl-N-{(3aR,4S,6aS)-2-[2-(trifluoromethyl)benzyl]octahydrocyclopenta[c]pyrrol-4-yl}butanamide]	4800 nM
CC(C)C(C(=O)N[C@H]1CC[C@@H]2CN(Cc3ccc(F)c(C(F)(F)F)c3)C[C@@H]21)c1ccccc1 (stereo partly drawn) [Example 100, N-{(3aR,4S,6aS)-2-[4-fluoro-3-(trifluoromethyl)benzyl]octahydrocyclopenta[c]pyrrol-4-yl}-3-methyl-2-phenylbutanamide]	4200 nM
CC(C)C(C(=O)N[C@H]1CC[C@@H]2CN(Cc3ccc(C(F)(F)F)c(F)c3)C[C@@H]21)c1ccccc1 (stereo partly drawn) [Example 101, N-{(3aR,4S,6aS)-2-[3-fluoro-4-(trifluoromethyl)benzyl]octahydrocyclopenta[c]pyrrol-4-yl}-3-methyl-2-phenylbutanamide]	4700 nM
CC(C)C(C(=O)N[C@H]1CC[C@@H]2CN(Cc3ccncc3)C[C@@H]21)c1ccccc1 (stereo partly drawn) [Example 103, 3-methyl-2-phenyl-N-[(3aR,4S,6aS)-2-(pyridin-4-ylmethyl)octahydrocyclopenta[c]pyrrol-4-yl]butanamide]	31000 nM
CC(C)C(C(=O)N[C@H]1CC[C@@H]2CN(CCCc3ccc(C(C)(C)C)cc3)C[C@@H]21)c1ccccc1 (stereo partly drawn) [Example 106, N-{(3aR,4S,6aS)-2-[3-(4-tert-butylphenyl)propyl]octahydrocyclopenta[c]pyrrol-4-yl}-3-methyl-2-phenylbutanamide]	5800 nM
Cc1ccccc1CCCN1C[C@H]2CC[C@H](NC(=O)C(c3ccccc3)C(C)C)[C@H]2C1 (stereo partly drawn) [Example 108, 3-methyl-N-{(3aR,4S,6aS)-2-[3-(2-methylphenyl)propyl]octahydrocyclopenta[c]pyrrol-4-yl}-2-phenylbutanamide]	11300 nM
CC(C)C(C(=O)N[C@H]1CC[C@@H]2CN(CCCc3cccc(Cl)c3)C[C@@H]21)c1ccccc1 (stereo partly drawn) [Example 109, N-{(3aR,4S,6aS)-2-[3-(3-chlorophenyl)propyl]octahydrocyclopenta[c]pyrrol-4-yl}-3-methyl-2-phenylbutanamide]	9000 nM
Cc1cccc(CCCN2C[C@H]3CC[C@H](NC(=O)C(c4ccccc4)C(C)C)[C@H]3C2)c1 (stereo partly drawn) [Example 110, 3-methyl-N-{(3aR,4S,6aS)-2-[3-(3-methylphenyl)propyl]octahydrocyclopenta[c]pyrrol-4-yl}-2-phenylbutanamide]	2000 nM
CC(C)C(C(=O)N[C@H]1CC[C@@H]2CN(CCCc3cccc(C(F)(F)F)c3)C[C@@H]21)c1ccccc1 (stereo partly drawn) [Example 111, 3-methyl-2-phenyl-N-((3aR,4S,6aS)-2-{3-[3-(trifluoromethyl)phenyl]propyl}octahydrocyclopenta[c]pyrrol-4-yl)butanamide]	2200 nM
CC(C)C(C(=O)N[C@H]1CC[C@@H]2CN(CCCc3cccc(F)c3)C[C@@H]21)c1ccccc1 (stereo partly drawn) [Example 112, N-{(3aR,4S,6aS)-2-[3-(3-fluorophenyl)propyl]octahydrocyclopenta[c]pyrrol-4-yl}-3-methyl-2-phenylbutanamide]	2800 nM
CC(C)C(C(=O)N[C@H]1CC[C@@H]2CN(CCCCc3ccccc3)C[C@@H]21)c1ccccc1 (stereo partly drawn) [Example 113, 3-methyl-2-phenyl-N-[(3aR,4S,6aS)-2-(4-phenylbutyl)octahydrocyclopenta[c]pyrrol-4-yl]butanamide]	3100 nM

same assay, conditions: 60 minute pre-incubation with compound, 2 μM nifedipine, depolarized with 80 mM KCl

Compound	IC50
O=C(N[C@H]1CC[C@H]2CN(CCC(c3ccc(F)cc3)c3ccc(F)cc3)C[C@H]21)C(C1CCCCC1)C1CCCCC1 [Example 65, N-{(3aS,4S,6aR)-2-[3,3-bis(4-fluorophenyl)propyl]octahydrocyclopenta[c]pyrrol-4-yl}-2,2-dicyclohexylacetamide]	4500 nM
O=C(N[C@H]1CC[C@H]2CN(CCCCCC(c3ccc(F)cc3)c3ccc(F)cc3)C[C@H]21)C(C1CCCCC1)C1CCCCC1 [Example 66, N-{(3aS,4S,6aR)-2-[6,6-bis(4-fluorophenyl)hexyl]octahydrocyclopenta[c]pyrrol-4-yl}-2,2-dicyclohexylacetamide]	900 nM
O=C(N[C@H]1CC[C@H]2CN(CCCc3cccc(F)c3)C[C@H]21)C(C1CCCCC1)C1CCCCC1 [Example 68, 2,2-dicyclohexyl-N-{(3aS,4S,6aR)-2-[3-(3-fluorophenyl)propyl]octahydrocyclopenta[c]pyrrol-4-yl}acetamide]	1700 nM
O=C(N[C@H]1CC[C@H]2CN(CCCc3ccc(F)cc3)C[C@H]21)C(C1CCCCC1)C1CCCCC1 [Example 71, 2,2-dicyclohexyl-N-{(3aS,4S,6aR)-2-[3-(4-fluorophenyl)propyl]octahydrocyclopenta[c]pyrrol-4-yl}acetamide]	1200 nM
O=C(N[C@@H]1CC[C@H]2CN(CCCCCC(c3ccc(F)cc3)c3ccc(F)cc3)C[C@H]21)C(C1CCCCC1)C1CCCCC1 [Example 78, N-{(3aS,4R,6aR)-2-[6,6-bis(4-fluorophenyl)hexyl]octahydrocyclopenta[c]pyrrol-4-yl}-2,2-dicyclohexylacetamide]	400 nM
CC(C)C(C(=O)N[C@H]1CC[C@@H]2CN(CCCc3ccccc3)C[C@@H]21)c1ccccc1 (stereo partly drawn) [Example 105, 3-methyl-2-phenyl-N-[(3aR,4S,6aS)-2-(3-phenylpropyl)octahydrocyclopenta[c]pyrrol-4-yl]butanamide]	1500 nM
CC(C)C(C(=O)N[C@H]1CC[C@@H]2CN(CCCc3ccc(C(F)(F)F)cc3)C[C@@H]21)c1ccccc1 (stereo partly drawn) [Example 115, 3-methyl-2-phenyl-N-((3aR,4S,6aS)-2-{3-[4-(trifluoromethyl)phenyl]propyl}octahydrocyclopenta[c]pyrrol-4-yl)butanamide]	1200 nM
O=C(N[C@H]1CC[C@H]2CN(Cc3cccc(C(F)(F)F)c3)C[C@H]21)C(O)(C1CCCCC1)C1CCCCC1 [Example 152, 2,2-dicyclohexyl-2-hydroxy-N-{(3aS,4S,6aR)-2-[3-(trifluoromethyl)benzyl]octahydrocyclopenta[c]pyrrol-4-yl}acetamide]	800 nM
CC(C)C[C@@H](C(=O)N[C@H]1CC[C@H]2CN(Cc3cccc(C(F)(F)F)c3)C[C@H]21)N(C)C(=O)OC(C)(C)C [Example 153, N^2-(tert-butyloxycarbonyl)-N^2-methyl-N^1-{(3aS,4S,6aR)-2-[3-(trifluoromethyl)benzyl]octahydrocyclopenta[c]pyrrol-4-yl}-L-leucinamide]	400 nM
CC(=O)N(C)[C@@H](CC(C)C)C(=O)N[C@H]1CC[C@H]2CN(Cc3cccc(C(F)(F)F)c3)C[C@H]21 [Example 175, N^2-acetyl-N^2-methyl-N^1-{(3aS,4S,6aR)-2-[3-(trifluoromethyl)benzyl]octahydrocyclopenta[c]pyrrol-4-yl}-L-leucinamide]	1500 nM
O=S(=O)(N[C@@H]1CC[C@@H]2CN(Cc3cccc(C(F)(F)F)c3)C[C@@H]21)c1cccc(C(F)(F)F)c1 [Example 188, 3-(trifluoromethyl)-N-{(3aR,4R,6aS)-2-[3-(trifluoromethyl)benzyl]octahydrocyclopenta[c]pyrrol-4-yl}benzenesulfonamide]	800 nM
O=S(=O)(N[C@@H]1CC[C@H]2CN(Cc3ccccc3)C[C@H]21)c1cccc(C(F)(F)F)c1 [Example 190, N-[(3aS,4R,6aR)-2-benzyloctahydrocyclopenta[c]pyrrol-4-yl]-3-(trifluoromethyl)benzenesulfonamide]	1300 nM
O=S(=O)(N[C@@H]1CC[C@H]2CN(Cc3ccc(C(F)(F)F)c(F)c3)C[C@H]21)c1cccc(C(F)(F)F)c1 [Example 194, N-{(3aS,4R,6aR)-2-[3-fluoro-4-(trifluoromethyl)benzyl]octahydrocyclopenta[c]pyrrol-4-yl}-3-(trifluoromethyl)benzenesulfonamide]	1400 nM

same assay, conditions: IMR-32, @ 10 μM, 3 minute pre-incubation (*), read-out: percent inhibition

Compound	inhibition at 10 µM
CC(C)C(C(=O)N[C@H]1CC[C@@H]2CN(C)C[C@@H]21)c1ccccc1 (stereo partly drawn) [Example 84, 3-methyl-N-[(3aR,4S,6aS)-2-methyloctahydrocyclopenta[c]pyrrol-4-yl]-2-phenylbutanamide]	5.8%
COc1cccc(CN2C[C@H]3CC[C@H](NC(=O)C(c4ccccc4)C(C)C)[C@H]3C2)c1 (stereo partly drawn) [Example 90, N-[(3aR,4S,6aS)-2-(3-methoxybenzyl)octahydrocyclopenta[c]pyrrol-4-yl]-3-methyl-2-phenylbutanamide]	83%
CC(C)C(C(=O)N[C@H]1CC[C@@H]2CN(CCc3ccccc3)C[C@@H]21)c1ccccc1 (stereo partly drawn) [Example 104, 3-methyl-2-phenyl-N-[(3aR,4S,6aS)-2-(2-phenylethyl)octahydrocyclopenta[c]pyrrol-4-yl]butanamide]	79%
